{"source": "patent US5843887A", "about": "“Compositions for delivery of polypeptides, and methods” (Allied Medical Research Associates, priority 1994, dated 1998)", "key": {"[1]": {"conditions": "pH of 8, in the presence of trypsin; cited from earlier work"}, "serum glucose": {"tested_on": "serum glucose", "experiment": "IF and insulin injected into the sutured duodenal cavity of mice, serum glucose", "format": "in vivo", "conditions": "50 mg IF and 4 I.U. insulin, decreases up until death, depending on the dose", "procedure": "10 g IF (dosage of 300 Units per mg; one unit will bind one nanogram of vitamin B12) was added to 1 liter of 0.02M phosphate buffered solution and stirred up to 37° C. […] The solution (with a prefered pH of about 6) was stirred at a temperature of 37° C. for 24 hours. The product was then dialysed at 4° C. and dehydrated by lyophilization."}, "[2]": {"conditions": "doses of 100 to 500 μg, as in pernicious anemia; cited from earlier work"}, "blood glucose level": {"tested_on": "blood glucose level", "experiment": "oral administration of IF and/or porcine insulin to mice, blood glucose level", "format": "in vivo", "conditions": "administered orally (summary statement)", "procedure": "The IF was substantially free of R-protein and prepared as in Example 1. […] Blood glucose level was measured with a blood glucose meter standard model Tracer (Boehringer) and produced the following results."}}}
{"substance": "IF: glycoprotein with a molecular weight of 50 kDa, 351 amino acids, binds cobalamin", "values": [{"measurement": "affinity for cobalamin relative to that of R protein", "setting": "[1]", "result": 150, "unit": "times"}]}
{"substance": "Insulin alone: human biogenetic insulin (Novo Nordisk) of Example 1, injected alone", "values": [{"measurement": "change in serum glucose", "setting": "serum glucose", "result": "did not cause a fall in serum glucose"}]}
{"substance": "cyanocobalamin", "values": [{"measurement": "fraction of dose absorbed (passive absorption)", "setting": "[2]", "result": 1, "unit": "%"}]}
{"substance": "insulin", "values": [{"measurement": "change in serum glucose after oral administration", "setting": "blood glucose level", "result": "no change in serum glucose"}]}
